Assay results published in patent publication US20170266222A1, “MODULATION OF CHRFAM7A FOR ANTI-INFLAMMATORY THERAPIES” (THE REGENTS OF THE UNIVERSITY OF CALIFORNIA, priority 2016, published 2017).
“Also recorded” adds a separate entry of the source.

What was measured:
CHRFAM7A gene expression = experiment: qPCR of CHRFAM7A gene expression in gut epithelial cells treated with LPS; type: cell-based, human
Protocol: (§1) All epithelial cancer cell lines were originally purchased from American Type Culture Collection and propagated as instructed. Normal human small intestine epithelial cells (FHs-Int-74) were also obtained from the ATCC (CCL-241). Cells were seeded at 2×10^6 in 6-well tissue culture plates the day before the experiment. As indicated, cells were either harvested directly for total RNA preparation, processed for transient transfection, or treated with LPS (CAT# L4391, Sigma) at 100 ng/ml for 3 hours. At the end of the incubation with LPS, cells were harvested and used for analyses of gene expression.
(§2) Total RNA was prepared using RNeasy kit (Qiagen) and was quantitated using Nanodrop Spectrophotometer. One μg total RNA was reverse transcribed using iScript cDNA synthesis kit (BioRad) in a 20 μl reaction. Of the 20 μl cDNA, one μl was used for RT-PCR or real-time qPCR.
(§3) RT-PCR was performed in a 50 μl reaction containing 45 μl PCR blue mix (Invitrogen), 1 μl of each primer (10 μM), 1 μl cDNA, and 2 μl water. The cycling conditions were: 94° C. for 4 minutes followed by 35 cycles of 94° C. for 30 seconds, 60° C. for 30 seconds, and 72° C. for 60 seconds and a final extension at 72° C. for 5 minutes. Ten μl of each PCR products were resolved on a 2% agarose gel and images were acquired using Alpha Innotech imaging system. Real-time qPCR was performed in a 25 μl reaction containing 12.5 μl 2×CYBR Green PCR Master Mix (BioRad), 0.5 μl of each primer (10 μM), 1 μl cDNA, and 10.5 μl water. PCR cycling conditions were: 95° C. for 10 minutes followed by 45 cycles of 94° C. for 25 seconds, 60° C. for 25 seconds, and 72° C. for 40 seconds. Primer efficiency for CHRFAM7A and CHRNA7 were 100% and 94% respectively. Expression of CHRNA7 and CHRFAM7A was normalized to that of GAPDH using ΔΔCt method.
Primers for CHRFAM7A were designed to hybridize with the variant 1 transcript by selecting sequences that bridge CHRFAM7A and CHRNA7 and therefore unique to CHRFAM7A and not available in FAM7A or CHRNA7A alone: Sense: 5′-ATAGCTGCAAACTGCGATA-3′ (SEQ ID NO:11), Anti-sense: 5′-[…]-3′(SEQ ID NO:12).

CHRNA7 gene expression = experiment: qPCR of CHRNA7 gene expression in gut epithelial cells treated with LPS; type: cell-based, human; settings: 3 hours
Protocol: as §1, §2, §3
Primers for CHRNA7 were designed to hybridize with both variant 1 and 2 transcripts of CHRNA7 by selecting sequences present in CHRNA7 but absent from CHRFAM7A for amplification: Sense, 5′-acATGcgctgctcgccggga-3′ (SEQ ID NO:13), Anti-sense, 5′-[…]-3′ (SEQ ID NO:14).

[1] = system: CHRFAM7A/CHRNA7 gene expression; experiment: qRT-PCR ratio of CHRFAM7A to CHRNA7 in leukocyte cell lines treated with LPS; type: cell-based, human; settings: 100 ng/ml LPS, 3 hours
Text: All cell lines were originally purchased from ATCC and/or acquired through the UCSD Department of Surgery, Division of Trauma, Burns and Acute Care Surgery Cell Repository. Thawed cells were washed in RPMI culture media containing 10% FCS, the pellet reconstituted in culture media and cells plated into six-well tissue culture plates. All cells were washed 48 hrs later and allowed to grow to 90% confluence and propagated with trypsin digestion as needed. For transduction studies, cells were seeded at 2×10^6 in 6-well tissue culture plates the day before the experiment. As indicated in each experiment, cells were harvested directly from the culture dishes for total RNA preparation, processed for stable or transient transfection, or treated with 100 ng/ml LPS (CAT# L4391, Sigma) for 3 hours. At the end of incubations, cells were harvested, total RNA isolated and the cDNA generated (see below) used for analyses of gene expression.
Total RNA was prepared from cell lysates using the RNeasy kit (Qiagen, San Diego Calif.) and was quantified using a Nanodrop Spectrophotometer. […]
RT-PCR and Quantitative RT-PCR for CHRFAM7A and CHRNA7: RT-PCR was performed in a 50 μl reaction containing 45 μl PCR blue mix (Invitrogen), 1 μl of each primer (10 μM), 1 μl cDNA, and 2 μl water. […]

CHRFAM7A promoter [2] = experiment: CHRFAM7A promoter luciferase reporter in THP1 cells; type: cell-based, human; settings: THP1 cells pre-treated with 100 ng/ml LPS
Text: Analyses of the CHRFAM7A promoter: The putative CHRFAM7A promoter region spanning from −2363 to +22 relative to the open reading frame ATG start codon was amplified by PCR of genomic DNA isolated from HEK293 cells. The longest fragment was cloned into pGL4 promoter-less luciferase reporter plasmid (Promega) according to the manufacturers specifications and the resulting plasmid, pGL4-CHRFAM7A (˜2400) was confirmed by DNA sequencing and thereafter referred to f2400 to reflect the size of the fragment. […]
The fragments generated were cloned into the pGL4 vector to create plasmids f1800, f1000, and f500, which were each sequenced to confirm their identity. These plasmids were then transiently transfected into THP1 cells as described below, and luciferase activity was analyzed 30 hours after transfection following the manufacturer's instructions (Promega). […]
THP1 cells, cultured in RPMI1640 supplemented with 1× Glutamax and 1× Penicillin/Streptomycin, were seeded at 5×10^5 per well in a 24-well plate two hours before transfection. […] The lysate was spun down and 10 μl of the supernatant was used for luciferase assay on POLARstar Omega plate reader (BMG LABTECH). Luciferase activity normalized to protein concentration was expressed as fold changes over that of pGL4 transfected cells.

CHRFAM7A promoter [3] = experiment: CHRFAM7A promoter luciferase reporter in FHs cells; type: cell-based, human; settings: LPS 100 ng/ml
Text: The putative CHRFAM7A promoter region spanning from −2363 to +22 relative to the open reading frame ATG start codon was amplified by PCR of genomic DNA isolated from HEK293 cells. The longest fragment was cloned into pGL4 promoter-less luciferase reporter plasmid (Promega) according to the manufacturers specifications and the resulting plasmid, pGL4-CHRFAM7A (2400) was confirmed by DNA sequencing and thereafter referred to F2400 to reflect the size of the fragment. […]
The fragments generated were cloned into the pGL4 vector to create plasmids f1800, f1000, and f500, which were each sequenced to confirm their identity. These plasmids were then transiently transfected into FHs cells as described below, and luciferase activity was analyzed 30 hours after transfection following the manufacturer's instructions (Promega). […]
Transfections of FHs cells for luciferase activity: The normal human small intestine FHs cells were cultured in 10% DMEM/F12 supplemented with 1× Glutamax, 1× Penicillin/Streptomyxin, and 30 ng/ml EGF and seeded at 1×10^5 per well in a 12-well plate the day before transfection. […] The lysate was spun down and 10 μl of the supernatant was used for luciferase assay on POLARstar Omega plate reader (BMG LABTECH).

CHRNA7 and CHRFAM7A = settings: undifferentiated human THP1 cells and human macrophages; cited from earlier work

lipopolysaccharide [LPS]
CHRFAM7A gene expression by q-PCR (CHRFAM7A gene expression; FHs cells, 100 ng/ml LPS, 3 hr): increases | relative expression of CHRFAM7A over CHRNA7 (CHRFAM7A gene expression; HCT116T, KM20L and T84 cells, LPS): unchanged | change of CHRFAM7A gene expression (CHRFAM7A gene expression; KM12 and T84 cells, 100 ng/ml LPS): decreased | increase of CHRFAM7A gene expression (CHRFAM7A gene expression; epithelial cells, 100 ng/ml LPS, 3 hour treatment): ~1000 fold | increase of relative expression of CHRFAM7A over CHRNA7 (CHRFAM7A gene expression; gut epithelial cells, depending on the cell line, LPS): 2-200 fold | increase in CHRNA7 gene expression (CHRNA7 gene expression; CaCo2, KM12, KM20, SW, Colo205 cells, 100 ng LPS): less than two-fold | decrease in CHRNA7 gene expression (CHRNA7 gene expression; FHs and T84 cells, 100 ng LPS): 30% | effect on CHRNA7 gene expression (CHRNA7 gene expression; epithelial cells, 100 ng/ml LPS): little to no effect; also recorded: little effect | ratio of CHRFAM7A to CHRNA7 gene expression [1]: unaffected; also recorded: both genes respond equally | luciferase signal of CHRFAM7A 5'UTR fragments (CHRFAM7A promoter [2]): decreased; also recorded: inhibited | luciferase activity profile of CHRFAM7A UTR fragments (CHRFAM7A promoter [3]): very similar profile | effect on CHRNA7 and CHRFAM7A (CHRNA7 and CHRFAM7A): inhibits
